Results on four compounds are retold here after US20200148646A1, “6-S[…] 7-S[…] ANALOGS AND THE USE THEREOF” (Purdue Pharma, L.P., priority 2013, published 2020).

Assay [1] concerns the target T1, human κ opioid receptor (Homo sapiens, UniProt P41145). The assay can be described thus: κ-opioid receptor radioligand ([3H]-U69,593) dose-displacement binding assay, HEK-293 or CHO cells. Further details: expressed in transfected cells; host or cells: HEK-293 cells (in-house prep).
Assay [2] has as its target T2, μ-opioid receptor (Homo sapiens, UniProt P35372). In words: μ-opioid receptor radioligand ([3H]-diprenorphine) dose-displacement binding assay, HEK-293 or CHO cells.
For assay [3], the target named is T1, human κ opioid receptor. The assay can be described thus: κ-opioid receptor [35S]GTPγS functional assay, HEK-293 or CHO cells. The assay is classed as biochemical. Further details: expressed in transfected cells. The conditions noted are these: for Emax: HEK-293 or CHO cells, relative to U69,593. The protocol:
Membranes from recombinant HEK-293 cells, CHO or U-2 OS cells expressing the recombinant human K opioid receptor (K) were prepared by lysing cells in ice cold hypotonic buffer (2.5 mM MgCl2, 50 mM HEPES, pH 7.4) (10 mL/10 cm dish) followed by homogenization with a tissue grinder/Teflon pestle. Functional [^35S]GTPγS binding assays were conducted as follows. K opioid receptor membrane solution was prepared by sequentially adding final concentrations of 0.026 μg/μl κ membrane protein (in-house), 10 μg/mL saponin, 3 μM GDP and 0.20 nM [^35S]GTPγS to binding buffer (100 mM NaCl, 10 mM MgCl2, 20 mM HEPES, pH 7.4) on ice. The prepared membrane solution (190 μl/well) was transferred to 96-shallow well polypropylene plates containing 10 μl of 20× concentrated stock solutions of agonist prepared in DMSO. Plates were incubated for 30 min at a temperature of about 25° C. with shaking. Reactions were terminated by rapid filtration onto 96-well Unifilter GF/B filter plates (Perkin Elmer, Shelton, Conn.) using a 96-well tissue harvester (Packard) and followed by three filtration washes with 200 μl ice-cold binding buffer (10 mM NaH2PO4, 10 mM Na2HPO4, pH 7.4). Filter plates were subsequently dried at 50° C. for 2-3 hours. Fifty μl/well scintillation cocktail (Perkin Elmer, Shelton, Conn.) was added and plates were counted in a Packard Top-Count for 1 min/well.
κ GTP EC50 is the concentration of a compound providing 50% of the maximal response for the compound at a κ receptor.
κ GTP Emax (%) is the maximal effect elicited by a compound relative to the effect elicited by U69,593.
In TABLE 2, activity response of certain Compounds of the Invention at the μ- and κ-opioid receptors using HEK-293 or CHO cells was determined as described above for functional assays.
A general note: GTPγS resists hydrolysis and so accumulates on activated G proteins.

For assay [4], the target named is T2, μ-opioid receptor. The assay can be described thus: μ-opioid receptor [35S]GTPγS functional assay, HEK-293 or CHO cells. The assay is classed as biochemical. The note with it: for Emax: HEK-293 or CHO cells, relative to DAMGO. The gist of the method:
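Agonist-stimulated [35S]GTPγS binding to recombinant μ-receptor membranes (HEK-293 or CHO) with 0.20 nM [35S]GTPγS, […] and saponin, pH 7.4, 30 min at about 25 °C, then filtration and scintillation counting. EC50 from sigmoidal fits; Emax relative to DAMGO.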

Assay [5] addresses T1, human κ opioid receptor. The assay can be described thus: κ-opioid receptor [35S]GTPγS functional assay, U-2 OS cells. The format is biochemical. Further details: expressed in transfected cells; host or cells: U-2 OS cells (in-house membranes). The conditions noted are these: for Emax: U2-OS cells, relative to U69,593. The gist of the method: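 Membranes from U-2 OS cells expressing human κ receptor (0.026 μg/μl protein) were incubated with agonist, 10 μg/mL saponin, 3 μM GDP and 0.20 nM [35S]GTPγS in pH 7.4 HEPES buffer for 30 min at about 25 °C. Bound radioactivity was measured after filtration. EC50 was taken at half-maximal response; Emax is relative to U69,593.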

For assay [6], the target named is T2, μ-opioid receptor. In words: μ-opioid receptor [35S]GTPγS functional assay, U-2 OS cells. The note with it: for Emax: U2-OS cells, relative to DAMGO. Details: host or cells: U-2 OS cells. The assay is classed as biochemical. Put shortly: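 U-2 OS membranes expressing recombinant human μ-receptor (0.026 mg/mL) were incubated with compound, […], saponin and [35S]GTPγS 0.20 nM in HEPES/NaCl/MgCl2 buffer pH 7.4 for 30 min at about 25° C. Filter-bound radioactivity gave sigmoidal fits for EC50; Emax is relative to DAMGO.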

A value given as a limit tells only on which side of the number the result lay.

T1 sequence (P41145 whole entry): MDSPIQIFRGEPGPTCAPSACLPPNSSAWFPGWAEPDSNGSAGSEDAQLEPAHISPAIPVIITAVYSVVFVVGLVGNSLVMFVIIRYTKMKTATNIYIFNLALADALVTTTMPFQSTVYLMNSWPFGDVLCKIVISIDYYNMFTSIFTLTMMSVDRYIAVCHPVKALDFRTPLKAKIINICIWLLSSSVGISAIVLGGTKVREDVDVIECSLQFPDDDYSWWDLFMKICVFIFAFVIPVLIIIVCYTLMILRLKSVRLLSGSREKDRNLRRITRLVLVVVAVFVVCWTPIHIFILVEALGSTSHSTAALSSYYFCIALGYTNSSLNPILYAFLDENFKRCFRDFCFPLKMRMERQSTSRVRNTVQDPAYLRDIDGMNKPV
T2 sequence (P35372 whole entry, species assumed): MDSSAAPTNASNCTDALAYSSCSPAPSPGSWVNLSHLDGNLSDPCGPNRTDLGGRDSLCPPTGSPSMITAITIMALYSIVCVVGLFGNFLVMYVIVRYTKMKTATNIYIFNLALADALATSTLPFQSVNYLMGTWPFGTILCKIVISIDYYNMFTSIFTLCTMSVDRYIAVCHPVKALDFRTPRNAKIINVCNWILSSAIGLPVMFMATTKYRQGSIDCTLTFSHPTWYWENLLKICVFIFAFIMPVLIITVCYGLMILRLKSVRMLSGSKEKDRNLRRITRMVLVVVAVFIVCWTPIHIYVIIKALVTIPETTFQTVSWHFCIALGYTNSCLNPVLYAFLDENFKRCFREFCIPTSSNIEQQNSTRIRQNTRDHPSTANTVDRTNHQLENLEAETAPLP

As to `COc1ccc2c(c1)[C@]13CCN(CC4CC4)[C@H](C2)[C@]1(O)CC[C@H](O)C3` [Compound 4, (4bR,6S,8aS,9R)-11-(cyclopropylmethyl)-3-methoxy-5,6,7,8,9,10-hexahydro-8aH-9,4b-(epiminoethano)phenanthrene-6,8a-diol], the results for the Ki at human κ opioid receptor [1] and at μ-opioid receptor [2] were 172 ± 12.8 nM and 4590 ± 356 nM, respectively. In addition, the EC50 (usually the concentration giving half of the maximal effect) at human κ opioid receptor [3] was 7860 nM; on μ-opioid receptor [4], 6140 nM. In addition, the Emax (usually the greatest response seen or fitted, relative to the assay's reference) came out at 55.8 ± 5.88% at human κ opioid receptor [3] and 33.7 ± 2.96% on μ-opioid receptor [4].
Regarding `CC(=O)N[C@H]1C[C@@]2(O)[C@H]3Cc4ccc(O)cc4[C@@]2(CCN3CC2CC2)C[C@H]1O` [Compound 55, N-((4bR,6R,7S,8aS,9R)-11-(cyclopropylmethyl)-3,6,8a-trihydroxy-6,7,8,8a,9,10-hexahydro-5H-9,4b-(epiminoethano)phenanthren-7-yl)acetamide], the Ki (commonly the dissociation constant of the complex between target and ligand, obtained from inhibition or displacement) at human κ opioid receptor [1] was found to be 54.8 ± 8.83 nM; on μ-opioid receptor [2], 201 ± 62.1 nM. In addition, the 50% effective concentration (EC50) on human κ opioid receptor [5] was 194 ± 54.4 nM; on μ-opioid receptor [6], more than 20000 nM; on human κ opioid receptor [3] it was 203 ± 20.2 nM; at μ-opioid receptor [4], more than 20000 nM. Also, the Emax on human κ opioid receptor [5] is 77.7 ± 5.49%; at μ-opioid receptor [6], 4%; on human κ opioid receptor [3], 13.3 ± 0.88%; at μ-opioid receptor [4], 1%.
In the case of `CCC(=O)N[C@H]1C[C@@]2(O)[C@H]3Cc4ccc(O)cc4[C@@]2(CCN3CC2CC2)C[C@H]1O` [Compound 56, N-((4bR,6R,7S,8aS,9R)-11-(cyclopropylmethyl)-3,6,8a-trihydroxy-6,7,8,8a,9,10-hexahydro-5H-9,4b-(epiminoethano)phenanthren-7-yl)propionamide], the values for the inhibitory constant (Ki) on human κ opioid receptor [1] and at μ-opioid receptor [2] were 7.19 ± 0.87 nM and 54.2 ± 12.5 nM, respectively. For the same compound, the EC50 at human κ opioid receptor [5] was 29.3 ± 4.34 nM; at μ-opioid receptor [6], 95 ± 16.4 nM; on human κ opioid receptor [3], 71.8 ± 8.76 nM; on μ-opioid receptor [4], more than 20000 nM. The maximal response (Emax) on human κ opioid receptor [5] came to 105 ± 3.38%; on μ-opioid receptor [6] it was 19.3 ± 1.45%; on human κ opioid receptor [3] it was 53 ± 0.58%; at μ-opioid receptor [4], 1%.
In the case of `CCC(=O)N[C@H]1C[C@@]2(O)[C@H]3Cc4ccc(O)cc4[C@@]2(CCN3CC2CC2)C[C@@H]1O` [Compound 57, N-((4bR,6S,7S,8aS,9R)-11-(cyclopropylmethyl)-3,6,8a-trihydroxy-6,7,8,8a,9,10-hexahydro-5H-9,4b-(epiminoethano)phenanthren-7-yl)propionamide], the values for the inhibition constant Ki on human κ opioid receptor [1] and at μ-opioid receptor [2] were 16.7 ± 2.61 nM and 44.9 ± 7.71 nM, respectively. The EC50 at human κ opioid receptor [5] is 33.1 ± 3.53 nM; at μ-opioid receptor [6], 77.7 ± 10.3 nM; on human κ opioid receptor [3] it was 26.1 ± 6.87 nM; at μ-opioid receptor [4] it was more than 20000 nM. Moreover, the Emax at human κ opioid receptor [5] came to 113 ± 5.86%; on μ-opioid receptor [6], 9 ± 0.58%; at human κ opioid receptor [3], 37.2 ± 3.07%; at μ-opioid receptor [4], 1.5%.
